Reference: patent publication US11298388B2, “Psychoactive alkaloid extraction and composition with controlled dephosphorylation” (PSILO SCIENTIFIC LTD, priority 2020, dated 2022)
Where two headings read alike, the source gives them in different places.

Experiments:
[1] = cited from earlier work
[2] = Isoelectric point / maximum stability pH; assay type: physicochemical
Method: The pH of the partially concentrated extract of Example 1, which was an aqueous extract, was adjusted to pH 4.0 (+/−0.5) by adding 2 M phosphoric acid and centrifuged for 15 minutes at 3000 g to remove any solid precipitate. The pH of 4 corresponds to the isoelectric point of psilocybin, and psilocin's polarity is such that it is partitioned onto the resin, thus allowing effective binding of the psychoactive alkaloids psilocybin and psilocin to the macroporous resin. Norbaeocystin and baeocystin are phosphorylated and behave in the same way as psilocybin. The supernatant obtained was loaded onto a column of Amberlite® XAD4, a non-ionic macroporous resin (50.34 g of dry resin) at a flow rate of 2 bed volumes per hour, to allow components in the supernatant to be adsorbed onto the macroporous resin. After all 2.5 L of the extract was loaded onto the column of macroporous resin, the column was washed in a single pass with 5 bed volumes of reverse osmosis water at room temperature. This was followed by elution with 5 bed volumes of 5% ethanol (by weight), again at room temperature. Finally, the column was washed in a single pass with 5 bed volumes of 100% ethanol. The elution was performed at room temperature. Each of these three fractions was collected separately. The particular order for the washing steps and the elution was selected to be in the order of the polarity of the solvents. […]

[3] = Oxidation (decay) of psilocin when exposed to air, own data

SMILES | solubility ([1]; in acetone) | solubility ([1]; in ethanol) | solubility ([1]; in isopropanol) | solubility ([1]; in methanol) | solubility ([1]; in water) | maximum stability pH [2] | decay (oxidation of psilocin) ([3]; at 20 hours when shielded from light) | decay (oxidation of psilocin) ([3]; moist and/or high light environment, after 5 hours) | decay (oxidation of psilocin) ([3]; moist and/or high light environment, within 30 minutes)
CN(C)CCc1c[nH]c2cccc(O)c12 [Psilocin, psilocin] | not soluble | not soluble | not soluble | soluble | soluble | 4 | 40-60% | 25% | about 10%
CN(C)CCc1c[nH]c2cccc(OP(=O)(O)O)c12 [Psilocybin, psilocybin] | not soluble | not soluble | not soluble | soluble | soluble | – | – | – | –
